Like-named read-outs stand apart in the source and are kept apart here.

Among the data in patent EP2441755A1 (Almirall, S.A., priority 2010, dated 2012) are IC50 values, retold here.

In assay [1] the target is T1, Recombinant human full-length Syk (Homo sapiens, UniProt P43405).
T1 construct: Recombinant human full-length Syk was supplied by Millipore; purchased Millipore
The assay is described as follows: Syk enzyme assay - radioactive filtration kinase assay. It is filed as biochemical. As to the method: Syk Enzyme assay- Radioactive filtration kinase assay
Recombinant human full-length Syk was supplied by Millipore. The activity of Syk kinase was assessed using a radioactive filtration kinase assay. […] The reaction was initiated by the addition of 14.5 µl of 0.36 µCi [γ-^33P] ATP (10 mCi/ml, PerkinElmer). This was prepared in a half-area NBS plate (Corning) and allowed to stand at room temperature for 40 min. 15 µl of reaction mixture was transferred to a filter plate (Millipore) previously pre-wetted with a solution of 75 mM phosphoric acid. The reaction was terminated with the addition of 200 µl phosphoric acid. The filter plate was washed three times under vacuum on a vacuum manifold (Millipore cat# MSVMHTS00) at 8" Hg vacuum level with 200 µl phosphoric acid per wash. 30 µl Optiphase™ Supermix (PerkinElmer) was added to each test well and allowed to incubate for at least 1 h before counting. Radioactivity counting was performed in a Wallac MicroBeta®, and the tyrosine phosphorylation activity by Syk was calculated.

Assay [2] deals with T2, JAK3 (aa 795-1124) (Homo sapiens, UniProt P52333).
T2 construct: JAK3 (aa 795-1124); GST (N); purchased Carna Bioscences; host or cells: baculovirus expression system
Nature of the assay: In vitro JAK kinase assay (TR-FRET), JAK3. It is filed as biochemical. Conditions: ATP 0.6 µM, poly (GT)-Biotin 140 nM, 30 minutes at room temperature. As to the method:
(§1) In vitro JAK kinase Assays
(§2) Compounds were screened for their ability to inhibit JAK1, JAK2 and JAK3 using the assays as indicated below.
(§3) The catalytic domains of human JAK1 (aa 850-1154), JAK2 (aa 826-1132), JAK3 (aa 795-1124) and Tyk2 (aa 871-1187) were expressed as N-terminal GST-fusion proteins using a baculovirus expression system and were purchased from Carna Bioscences. The enzymatic activity was assayed using as substrate a biotinylated peptide, poly (GT)-Biotin (CisBio). The peptide concentration in the reactions was 60 nM for JAK1, 20 nM for JAK2, 140 nM for JAK3 and 50 nM for Tyk2. The degree of phosphorylation was detected by TR-FRET (time-resolved fluorescence energy transfer).
(§4) IC50s of compounds were measured for each kinase in a reaction mixture containing the enzyme, ATP and the peptide in 8 mM MOPS (pH 7.0), 10 mM MgCl2, 0.05% β-mercaptoethanol, 0.45 mg/mL BSA. The ATP concentration in the reactions was 3 µM for JAK1, 0.2 µM for JAK2, 0.6 µM for JAK3 and 1.8 µM for Tyk2. The enzymatic reactions took place for 30 minutes at room temperature. Then, the reactions were stopped with 20 µL of quench detection buffer (50 mM HEPES, 0.5 M KF, EDTA 0.25 M, 0.1% (w/v) BSA, pH 7.5) containing 0.115 µg/mL of anti-phosphoTyr (PT66)-Cryptate (CisBio) and a variable concentration of SA-XL665 (CisBio) to keep the SA-B ratio constant. Incubate for 3 h and read on Victor 2V spectrofluorometer (PerkinElmer) set to read fluorescence resonance energy transfer.

Assay [3] concerns the target T3, human JAK1 (aa 850-1154) (Homo sapiens, UniProt P23458).
T3 construct: human JAK1 (aa 850-1154); GST (N); purchased Carna Bioscences; host or cells: baculovirus expression system
Nature of the assay: In vitro JAK kinase assay (TR-FRET), JAK1. It is filed as biochemical. Conditions: ATP 3 µM, poly (GT)-Biotin 60 nM, 30 minutes at room temperature. The method, then: as §1, §2, §3, §4
(In general: Time-resolved FRET reads energy transfer from a long-lived donor to a nearby acceptor.)

Assay [4] concerns LAD2 cells. Nature of the assay: LAD2 cells assay (degranulation, β-hexosaminidase release). The class given is cell-based. Conditions: Homo sapiens, 0.5 h; IgE-sensitized LAD2 cells, 30 min with compound, activated with 125 ng/ml streptavidin; released β-hexosaminidase; read-out: LAD2IC50. The source says:
LAD2 is a human mast cell line depending on stem cell factor for its survival, maturation and differentiation. This mast cell line was established by the NIH from bone marrow aspirates from a patient with mast cell sarcoma. LAD2 cells resemble CD34+ - derived human mast cells as they have granules containing tryptase, histamine and β-hexosaminidase. They also express c-kit and FcεRI (Kirshenbaum, et al., Leukemia Research 27: 677-682, 2003).
Sensitization of LAD2 cells
Cells were sensitized (0.2x10^6 cells/ml) in its normal growth factor (Complete StemPro-34 SFM, Gibco 10639-011 containing StemPro-34 nutrient supplement (1/40); glutamine (2 mM) and supplemented with 100 ng/ml SCF) by adding 100 ng/ml of biotin-labeled IgE (USBiological) overnight (16-18 h, 37º, 5% CO2) in a humidified atmosphere (90%).
Compounds were prepared from a 10^-2M stock in 100% DMSO to give seven successive 1/3 dilutions in DMSO. From each concentration, 2 further 1/10 dilutions were prepared in release buffer (137 mM NaCl, 2.70 mM KCI, 0.4 mM NaH2PO4, 5.6 mM (D)-glucose, 1.8 mM CaCl2, 1.3 mM MgSO4, 0.025% BSA). Finally, 5 µl from each diluted concentration were transferred into the assay plate (flat 96-well Nunc). The final compound concentrations tested ranged from 1x10^-5M to […] with a final proportion of DMSO in the assay of 0.1 %. Control wells were treated with 0.1 % DMSO.
Sensitized LAD2 cells were centrifuged (300 g, 3 min, R.T.) and washed 2 times with release buffer. Cells were resuspended in release buffer and adjusted to a density of 0.2x10^6/ml. 45 µl of the adjusted cells were transfered to the assay plate (∼10,000cells/well) containg 5 µl of the final compound concentrations. LAD2 cells were incubated with the compound for 30 min (37 °C, 5% CO2 90% of humidity) and then activated with 125 ng/ml of streptavidin (Pierce 21125) for 30 min (37 °C, 5% CO2, 90% of humidity). After the activation, cells were centrifuged at 1200 g, 10 min, 12 °C and supernatats were removed and transfered to another well for determination of released β-hexosaminidase. Empty wells were filled with 50 µl of release buffer for determination of intracellular β-hexosaminidase. Cells were lysed with 2 cycles of freeze-thaw.
Cells were incubated for 90 minutes, 37 °C with 1 mM β-hexosaminidase substrate (p-nitrophenyl N-acetyl-D-glucosamide, in citric buffer, pH 4.5). Reaction was stopped with 0.4 M glycine solution (pH 10.0) and the plate is read immediately at 405 nm.

The target in assay [5] is T4, JAK2 (aa 826-1132) (Homo sapiens, UniProt O60674).
T4 construct: JAK2 (aa 826-1132); GST (N); purchased Carna Bioscences; host or cells: baculovirus expression system
Nature of the assay: In vitro JAK kinase assay (TR-FRET), JAK2. The class given is biochemical. The conditions noted are these: ATP 0.2 µM, poly (GT)-Biotin 20 nM, 30 minutes at room temperature. The method, then: as §1, §2, §3, §4

The mark [6] stands for this setting: Syk 1nM final, poly-GT 100 µg/ml, [γ-33P] ATP, 40 min at room temperature, read-out: Syk IC50.

T3 sequence (P23458 850-1154): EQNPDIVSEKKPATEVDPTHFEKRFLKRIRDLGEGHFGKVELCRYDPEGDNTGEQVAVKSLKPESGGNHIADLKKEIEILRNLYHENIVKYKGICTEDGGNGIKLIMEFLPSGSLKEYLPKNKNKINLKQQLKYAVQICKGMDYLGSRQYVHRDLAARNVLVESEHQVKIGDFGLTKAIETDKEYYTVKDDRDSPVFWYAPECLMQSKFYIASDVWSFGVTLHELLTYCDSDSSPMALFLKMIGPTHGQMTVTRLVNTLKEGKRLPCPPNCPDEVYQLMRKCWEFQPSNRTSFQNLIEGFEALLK
T2 sequence (P52333 795-1124): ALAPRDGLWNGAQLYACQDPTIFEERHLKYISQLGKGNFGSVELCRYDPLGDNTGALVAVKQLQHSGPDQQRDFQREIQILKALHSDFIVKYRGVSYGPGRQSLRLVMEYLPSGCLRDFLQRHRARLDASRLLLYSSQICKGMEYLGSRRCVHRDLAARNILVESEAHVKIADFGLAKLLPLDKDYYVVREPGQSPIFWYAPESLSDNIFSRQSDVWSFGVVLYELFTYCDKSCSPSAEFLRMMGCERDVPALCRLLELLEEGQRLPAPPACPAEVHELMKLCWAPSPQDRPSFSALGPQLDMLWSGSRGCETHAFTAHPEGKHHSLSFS
T4 sequence (O60674 826-1132): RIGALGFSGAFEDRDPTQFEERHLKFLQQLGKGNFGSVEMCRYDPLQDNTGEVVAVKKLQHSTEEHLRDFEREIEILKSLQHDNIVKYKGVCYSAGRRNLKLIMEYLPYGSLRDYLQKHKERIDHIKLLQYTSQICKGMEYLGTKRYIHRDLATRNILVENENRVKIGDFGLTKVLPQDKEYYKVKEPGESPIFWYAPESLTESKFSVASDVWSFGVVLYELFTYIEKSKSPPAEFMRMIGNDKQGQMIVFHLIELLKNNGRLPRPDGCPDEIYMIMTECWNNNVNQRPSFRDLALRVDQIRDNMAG

For the molecule `O=C(Nc1cc(Nc2cnccn2)nc(-c2ccnc(N3CCNCC3)c2)c1)c1cccnc1` [Example 85, N-[2'-Piperazin-1-yl-6-(pyrazin-2-ylamino)-2,4'-bipyridin-4-yl]nicotinamide], the IC50 in assay [1] is 0.006 µM; in assay [2], 0.1 to 1 µM; in assay [3], > 1 µM; in assay [4] it was 0.123 µM; in assay [5] it was < 0.1 µM.
Take `O=C(O)C[C@H](Cc1ccccc1)C(=O)Nc1cc(Nc2cnccn2)nc(-c2ccnc(N3CCNCC3)c2)c1` [Example 100, (3S)-3-Benzyl-4-oxo-4-{[2'-piperazin-1-yl-6-(pyrazin-2-ylamino)-2,4'-bipyridin-4-yl]amino}butanoic acid]: the values for the IC50 in assay [2], in assay [3] and in assay [5] were 0.1 to 1 µM, > 1 µM and 0.1 to 1 µM, respectively.
Take `O=C(O)c1ccc(C(=O)Nc2cc(Nc3cnccn3)nc(-c3ccnc(N4CCNCC4)c3)c2)cc1` [Example 79, 4-({[2'-Piperazin-1-yl-6-(pyrazin-2-ylamino)-2,4'-bipyridin-4-yl]amino}carbonyl) benzoic acid]: the IC50 is 0.008 µM in assay [1], 0.1 to 1 µM in assay [2], 0.14 µM in assay [4] and < 0.1 µM in assay [5].
Regarding `O=C(O)c1cccc(C(=O)Nc2cc(Nc3cnccn3)nc(-c3ccnc(N4CCNCC4)c3)c2)c1` [Example 88, 3-({[2'-Piperazin-1-yl-6-(pyrazin-2-ylamino)-2,4'-bipyridin-4-yl]amino}carbonyl) benzoic acid], the IC50 is 0.006 µM in assay [1] (setting [6]), 0.1 to 1 µM in assay [2], 0.081 µM in assay [4] and < 0.1 µM in assay [5].
As for `O=C(Nc1cc(Nc2cnccn2)nc(-c2ccnc(N3CCNCC3)c2)c1)c1ccc(F)cc1` [Example 80, 4-Fluoro-N-[2'-piperazin-1-yl-6-(pyrazin-2-ylamino)-2,4'-bipyridin-4-yl]benzamide], the IC50 in assay [1] (setting [6]) was 0.006 µM; in assay [2], 0.1 to 1 µM; in assay [3], > 1 µM; in assay [4], 0.29 µM; in assay [5], < 0.1 µM.
`COc1cccc(CC(=O)Nc2cc(Nc3cnccn3)nc(-c3ccnc(N4CCNCC4)c3)c2)c1` [Example 78, 2-(3-Methoxyphenyl)-N-[2'-piperazin-1-yl-6-(pyrazin-2-ylamino)-2,4'-bipyridin-4-yl]acetamide]: the figures for the IC50 in assay [2], in assay [3] and in assay [5] were 0.1 to 1 µM, > 1 µM and < 0.1 µM, respectively.
